Molecules are shown by their SMILES. Some results are limits rather than exact numbers.

Consider 15 compounds from patent publication US20240059671A1, “TYROSINE KINASE 2 (TYK2) DEGRADATION COMPOUNDS AND METHODS OF USE” (CULLGEN (SHANGHAI), INC., priority 2020, published 2024).

The experiment concerns the target TYK2 (Homo sapiens, UniProt P29597). Briefly: TYK2 protein degradation in MOLT-4 cells by immunoblotting. It counts as cell-based. The arrangement: endogenous in cells; host or cells: MOLT-4. To be noted: MOLT-4 cells, 24 hours. A digest of the protocol: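 Percent TYK2 degradation came from densitometry of chemiluminescent immunoblots of RIPA lysates. Before lysis, MOLT-4 cells had been treated for 24 h with each compound at 0.5 or 5 μM.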
In general terms: Immunoblotting shows a protein as a band on a membrane.

Chain of TYK2 (P29597 whole entry): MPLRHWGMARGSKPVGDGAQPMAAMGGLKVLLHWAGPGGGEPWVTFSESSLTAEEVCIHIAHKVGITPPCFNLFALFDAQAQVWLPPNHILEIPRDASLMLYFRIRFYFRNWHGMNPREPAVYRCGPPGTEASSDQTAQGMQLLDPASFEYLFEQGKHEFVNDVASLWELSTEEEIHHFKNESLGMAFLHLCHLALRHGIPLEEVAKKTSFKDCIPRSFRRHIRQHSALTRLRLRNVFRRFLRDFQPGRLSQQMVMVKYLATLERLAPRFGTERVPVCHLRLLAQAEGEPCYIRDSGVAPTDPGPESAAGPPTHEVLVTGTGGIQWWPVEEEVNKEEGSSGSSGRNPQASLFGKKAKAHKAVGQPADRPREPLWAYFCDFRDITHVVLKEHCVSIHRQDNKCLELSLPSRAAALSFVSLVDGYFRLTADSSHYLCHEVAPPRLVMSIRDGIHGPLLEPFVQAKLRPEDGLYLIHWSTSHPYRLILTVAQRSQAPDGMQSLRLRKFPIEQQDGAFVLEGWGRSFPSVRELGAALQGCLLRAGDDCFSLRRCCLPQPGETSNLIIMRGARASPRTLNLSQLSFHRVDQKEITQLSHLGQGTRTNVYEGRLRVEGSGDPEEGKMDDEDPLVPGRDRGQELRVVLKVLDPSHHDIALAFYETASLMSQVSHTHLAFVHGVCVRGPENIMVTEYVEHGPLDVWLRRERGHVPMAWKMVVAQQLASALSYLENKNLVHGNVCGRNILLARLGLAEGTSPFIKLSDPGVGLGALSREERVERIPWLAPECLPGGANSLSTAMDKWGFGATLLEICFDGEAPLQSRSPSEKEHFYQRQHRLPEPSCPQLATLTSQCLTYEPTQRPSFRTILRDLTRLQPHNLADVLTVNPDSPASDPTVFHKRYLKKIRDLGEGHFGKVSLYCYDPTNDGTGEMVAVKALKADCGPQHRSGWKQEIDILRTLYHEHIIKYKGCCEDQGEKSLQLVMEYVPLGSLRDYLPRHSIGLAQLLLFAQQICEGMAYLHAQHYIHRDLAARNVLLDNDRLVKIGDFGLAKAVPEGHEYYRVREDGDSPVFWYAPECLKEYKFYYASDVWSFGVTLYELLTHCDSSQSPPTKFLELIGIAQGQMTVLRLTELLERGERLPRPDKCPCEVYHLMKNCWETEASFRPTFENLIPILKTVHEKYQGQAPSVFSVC

As for `CNC(=O)c1nnc(NC(=O)C2CC2)cc1Nc1cccc(-c2ncn(CCNC(=O)CCOCCC(=O)N[C@H](C(=O)N3C[C@H](O)C[C@H]3C(=O)NCc3ccc(-c4scnc4C)cc3)C(C)(C)C)n2)c1OC` [CPD-067, 6-(Cyclopropanecarboxamido)-4-((3-(1-(2-(3-(3-(((S)-1-((2S,4R)-4-hydroxy-2-((4-(4-methylthiazol-5-yl)benzyl)carbamoyl)pyrrolidin-1-yl)-3,3-dimethyl-1-oxobutan-2-yl)amino)-3-oxopropoxy)propanamido)ethyl)-1H-1,2,4-triazol-3-yl)-2-methoxyphenyl)amino)-N-methylpyridazine-3-carboxamide], the “TYK2 Degradation (0.5 μM)” value was no more than 20% and the “TYK2 Degradation (5 μM)” value was no more than 20%.
`CNC(=O)c1nnc(NC(=O)C2CC2)cc1Nc1cccc(-c2ncn(CCNC(=O)CCOCCOCCOCCOCCNc3ccc4c(c3)C(=O)N(C3CCC(=O)NC3=O)C4=O)n2)c1OC` (centres unmarked) [CPD-021, 6-(Cyclopropanecarboxamido)-4-((3-(1-(1-((2-(2,6-dioxopiperidin-3-yl)-1,3-dioxoisoindolin-5-yl)amino)-15-oxo-3,6,9,12-tetraoxa-16-azaoctadecan-18-yl)-1H-1,2,4-triazol-3-yl)-2-methoxyphenyl)amino)-N-methylpyridazine-3-carboxamide]: the “TYK2 Degradation (0.5 μM)” value is on record as no more than 20% and the “TYK2 Degradation (5 μM)” value is no more than 20%.
On to `CNC(=O)c1nnc(NC(=O)CNC(=O)CCCCCNc2cccc3c2C(=O)N(C2CCC(=O)NC2=O)C3=O)cc1Nc1cccc(-c2ncn(C)n2)c1OC` (centres unmarked) [CPD-046, 6-(2-(6-((2-(2,6-Dioxopiperidin-3-yl)-1,3-dioxoisoindolin-4-yl)amino)hexanamido)acetamido)-4-((2-methoxy-3-(1-methyl-1H-1,2,4-triazol-3-yl)phenyl)amino)-N-methylpyridazine-3-carboxamide], for which the “TYK2 Degradation (0.5 μM)” value was no more than 20% and the “TYK2 Degradation (5 μM)” value was no more than 20%.
With `CNC(=O)c1nnc(NC(=O)C2CC2)cc1Nc1cccc(-c2ncn(CCNC(=O)CCOCCOCCOCCNc3cccc4c3C(=O)N(C3CCC(=O)NC3=O)C4=O)n2)c1OC` (centres unmarked) [CPD-010, 6-(Cyclopropanecarboxamido)-4-((3-(1-(1-((2-(2,6-dioxopiperidin-3-yl)-1,3-dioxoisoindolin-4-yl)amino)-12-oxo-3,6,9-trioxa-13-azapentadecan-15-yl)-1H-1,2,4-triazol-3-yl)-2-methoxyphenyl)amino)-N-methylpyridazine-3-carboxamide], the “TYK2 Degradation (0.5 μM)” value is given as no more than 20%.
As for `CNC(=O)c1nnc(NC(=O)CNC(=O)CNc2ccc3c(c2)C(=O)N(C2CCC(=O)NC2=O)C3=O)cc1Nc1cccc(-c2ncn(C)n2)c1OC` (centres unmarked) [CPD-054, 6-(2-(2-((2-(2,6-Dioxopiperidin-3-yl)-1,3-dioxoisoindolin-5-yl)amino)acetamido)acetamido)-4-((2-methoxy-3-(1-methyl-1H-1,2,4-triazol-3-yl)phenyl)amino)-N-methylpyridazine-3-carboxamide], the “TYK2 Degradation (0.5 μM)” value is on record as no more than 20% and the “TYK2 Degradation (5 μM)” value is recorded as no more than 20%.
With `CNC(=O)c1nnc(NC(=O)C2CC2)cc1Nc1cccc(-c2ncn(CCNC(=O)CCOCCOCCC(=O)N[C@H](C(=O)N3C[C@H](O)C[C@H]3C(=O)NCc3ccc(-c4scnc4C)cc3)C(C)(C)C)n2)c1OC` [CPD-069, 6-(Cyclopropanecarboxamido)-4-((3-(1-((S)-15-((2S,4R)-4-hydroxy-2-((4-(4-methylthiazol-5-yl)benzyl)carbamoyl)pyrrolidine-1-carbonyl)-16,16-dimethyl-4,13-dioxo-7,10-dioxa-3,14-diazaheptadecyl)-1H-1,2,4-triazol-3-yl)-2-methoxyphenyl)amino)-N-methylpyridazine-3-carboxamide], the “TYK2 Degradation (0.5 μM)” value was no more than 20% and the “TYK2 Degradation (5 μM)” value is no more than 20%.
For the compound `CNC(=O)c1nnc(NC(=O)C2CC2)cc1Nc1cccc(-c2ncn(CCNC(=O)CCCCNc3cccc4c3C(=O)N(C3CCC(=O)NC3=O)C4=O)n2)c1OC` (centres unmarked) [CPD-004, 6-(Cyclopropanecarboxamido)-4-((3-(1-(2-(5-((2-(2,6-dioxopiperidin-3-yl)-1,3-dioxoisoindolin-4-yl)amino)pentanamido)ethyl)-1H-1,2,4-triazol-3-yl)-2-methoxyphenyl)amino)-N-methylpyridazine-3-carboxamide], the “TYK2 Degradation (0.5 μM)” value was no more than 20%.
On the same count and under the same terms, with `CNC(=O)c1nnc(NC(=O)C2CC2)cc1Nc1cccc(-c2ncn(CCNC(=O)CCCCCNc3cccc4c3C(=O)N(C3CCC(=O)NC3=O)C4=O)n2)c1OC` (centres unmarked) [CPD-005, 6-(Cyclopropanecarboxamido)-4-((3-(1-(2-(6-((2-(2,6-dioxopiperidin-3-yl)-1,3-dioxoisoindolin-4-yl)amino)hexanamido)ethyl)-1H-1,2,4-triazol-3-yl)-2-methoxyphenyl)amino)-N-methylpyridazine-3-carboxamide] the figure was no more than 20%.
Regarding `CNC(=O)c1nnc(NC(=O)CNC(=O)CCC(=O)N[C@H](C(=O)N2C[C@H](O)C[C@H]2C(=O)NCc2ccc(-c3scnc3C)cc2)C(C)(C)C)cc1Nc1cccc(-c2ncn(C)n2)c1OC` [CPD-034, N^1—((S)-1-((2S,4R)-4-Hydroxy-2-((4-(4-methylthiazol-5-yl)benzyl)carbamoyl)pyrrolidin-1-yl)-3,3-dimethyl-1-oxobutan-2-yl)-N^4-(2-((5-((2-methoxy-3-(1-methyl-1H-1,2,4-triazol-3-yl)phenyl)amino)-6-(methylcarbamoyl)pyridazin-3-yl)amino)-2-oxoethyl)succinamide], the “TYK2 Degradation (0.5 μM)” value was no more than 20% and the “TYK2 Degradation (5 μM)” value was no more than 20%.
Take `CNC(=O)c1nnc(Nc2ccc(N3CCN(C(=O)CCCCC(=O)N[C@H](C(=O)N4C[C@H](O)C[C@H]4C(=O)NCc4ccc(-c5scnc5C)cc4)C(C)(C)C)CC3)cn2)cc1Nc1cccc(-c2ncn(C)n2)c1OC` [CPD-098, 6-((5-(4-(6-(((S)-1-((2S,4R)-4-Hydroxy-2-((4-(4-methylthiazol-5-yl)benzyl)carbamoyl)pyrrolidin-1-yl)-3,3-dimethyl-1-oxobutan-2-yl)amino)-6-oxohexanoyl)piperazin-1-yl)pyridin-2-yl)amino)-4-((2-methoxy-3-(1-methyl-1H-1,2,4-triazol-3-yl)phenyl)amino)-N-methylpyridazine-3-carboxamide]: the “TYK2 Degradation (MOLT-4, 0.5 μM)” value was “C (C: ≤20% TYK2 degradation)” and the “TYK2 Degradation (MOLT-4, 5 μM)” value was “C (C: ≤20% TYK2 degradation)”.
For `CNC(=O)c1nnc(NC(=O)CNC(=O)CCCCCCCCOc2cc(-c3scnc3C)ccc2CNC(=O)[C@@H]2C[C@@H](O)CN2C(=O)[C@@H](NC(=O)C2(F)CC2)C(C)(C)C)cc1Nc1cccc(-c2ncn(C)n2)c1OC` [CPD-108, 6-(2-(9-(2-(((2S,4R)-1-((S)-2-(1-Fluorocyclopropane-1-carboxamido)-3,3-dimethylbutanoyl)-4-hydroxypyrrolidine-2-carboxamido)methyl)-5-(4-methylthiazol-5-yl)phenoxy)nonanamido)acetamido)-4-((2-methoxy-3-(1-methyl-1H-1,2,4-triazol-3-yl)phenyl)amino)-N-methylpyridazine-3-carboxamide], the “TYK2 Degradation (MOLT-4, 0.5 μM)” value is on record as “C (C: ≤20% TYK2 degradation)” and the “TYK2 Degradation (MOLT-4, 5 μM)” value was “C (C: ≤20% TYK2 degradation)”.
As for `CNC(=O)c1nnc(NC(=O)CNC(=O)CNc2cccc3c2C(=O)N(C2CCC(=O)NC2=O)C3=O)cc1Nc1cccc(-c2ncn(C)n2)c1OC` (centres unmarked) [CPD-042, 6-(2-(2-((2-(2,6-Dioxopiperidin-3-yl)-1,3-dioxoisoindolin-4-yl)amino)acetamido)acetamido)-4-((2-methoxy-3-(1-methyl-1H-1,2,4-triazol-3-yl)phenyl)amino)-N-methylpyridazine-3-carboxamide], the “TYK2 Degradation (0.5 μM)” value is given as no more than 20% and the “TYK2 Degradation (5 μM)” value is on record as no more than 20%.
As to `CNC(=O)c1nnc(Nc2ccc(N3CCN(C(=O)CCCCCCC(=O)N[C@H](C(=O)N4C[C@H](O)C[C@H]4C(=O)NCc4ccc(-c5scnc5C)cc4)C(C)(C)C)CC3)cn2)cc1Nc1cccc(-c2ncn(C)n2)c1OC` [CPD-100, 6-((5-(4-(8-(((S)-1-((2S,4R)-4-hydroxy-2-((4-(4-methylthiazol-5-yl)benzyl)carbamoyl)pyrrolidin-1-yl)-3,3-dimethyl-1-oxobutan-2-yl)amino)-8-oxooctanoyl)piperazin-1-yl)pyridin-2-yl)amino)-4-((2-methoxy-3-(1-methyl-1H-1,2,4-triazol-3-yl)phenyl)amino)-N-methylpyridazine-3-carboxamide], the “TYK2 Degradation (MOLT-4, 0.5 μM)” value was “A (A: ≥60% TYK2 degradation)”; the “TYK2 Degradation (MOLT-4, 5 μM)” value was “B (B: <60% TYK2 degradation, and >20% TYK2 degradation)”.
For the compound `CNC(=O)c1nnc(NC(=O)C2CC2)cc1Nc1cccc(-c2ncn(CCNC(=O)CCOCCOCCOCCOCCOCCNc3cccc4c3C(=O)N(C3CCC(=O)NC3=O)C4=O)n2)c1OC` (centres unmarked) [CPD-012, 6-(Cyclopropanecarboxamido)-4-((3-(1-(1-((2-(2,6-dioxopiperidin-3-yl)-1,3-dioxoisoindolin-4-yl)amino)-18-oxo-3,6,9,12,15-pentaoxa-19-azahenicosan-2l-yl)-1H-1,2,4-triazol-3-yl)-2-methoxyphenyl)amino)-N-methylpyridazine-3-carboxamide], the “TYK2 Degradation (0.5 μM)” value is no more than 20%.
With `CNC(=O)c1nnc(NC(=O)CNC(=O)CCCCOc2cc(-c3scnc3C)ccc2CNC(=O)[C@@H]2C[C@@H](O)CN2C(=O)[C@@H](NC(=O)C2(F)CC2)C(C)(C)C)cc1Nc1cccc(-c2ncn(C)n2)c1OC` [CPD-104, 6-(2-(5-(2-(((2S,4R)-1-((S)-2-(1-Fluorocyclopropane-1-carboxamido)-3,3-dimethylbutanoyl)-4-hydroxypyrrolidine-2-carboxamido)methyl)-5-(4-methylthiazol-5-yl)phenoxy)pentanamido)acetamido)-4-((2-methoxy-3-(1-methyl-1H-1,2,4-triazol-3-yl)phenyl)amino)-N-methylpyridazine-3-carboxamide], the “TYK2 Degradation (MOLT-4, 0.5 μM)” value is reported as “C (C: ≤20% TYK2 degradation)” and the “TYK2 Degradation (MOLT-4, 5 μM)” value is “C (C: ≤20% TYK2 degradation)”.
